Activity calls are given as the source filed them. How the calls were made is not given here. Some results are limits rather than exact numbers.

Chain of Serine/threonine-protein kinase mTOR (Homo sapiens) (P42345 2015-2114): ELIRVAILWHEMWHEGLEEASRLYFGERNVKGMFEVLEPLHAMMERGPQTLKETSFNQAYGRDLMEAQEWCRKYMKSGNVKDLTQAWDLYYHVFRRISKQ

The assay has as its target Serine/threonine-protein kinase mTOR (Homo sapiens) (UniProt P42345). Nature of the assay: mTOR FRB domain ligand binding – biophysical, NMR (AID 1648). To be noted: NMR binding to FRB domain, chemical shift.
What is called Kd is the concentration at which binding is half-saturated. Regarding `CC(=O)OC[C@@]1(O)C[C@@]23CCC4c5ccoc5CC[C@]4(C)C2CC[C@@H]1C3` (some centres not stated), the Kd is > 4 mM (inactive).

Consider `NCc1ccc(S(N)(=O)=O)cc1`, for which the Kd is > 4 mM (inactive).

In the case of `Cc1ccc(SCc2cc(=O)n3[nH]c(C)nc3n2)cc1`, the Kd is > 4 mM (inactive).

For the compound `Nc1ccc(N2CCCCC2)cc1`, the Kd was > 4 mM (inactive).

For the compound `O=S1(=O)CCC(NC(=S)Nc2ccccn2)C1` (configuration not stated), the Kd is > 4 mM (inactive).

Regarding `NC(=O)Cn1nc2c3c(cccc3c1=O)-c1ccccc1-2`, the Kd is > 4 mM (inactive).

For the compound `O=C1CSC(=Nc2ccc(O)cc2)N1`, the Kd is > 4 mM (inactive).

On to `Cc1cc(NC(=O)c2ocnc2C)no1`, for which the Kd was > 4 mM (inactive).

Take `O=C(O)c1cn(-c2ccccc2)nc1-c1ccncc1`: the Kd was > 4 mM (inactive).

Turning to `CC(=O)c1c(O)n(C)c(=S)n(C)c1=O`, the Kd was > 4 mM (inactive).

For the compound `NC(=O)N1CCc2ccccc21`, the Kd was > 4 mM (inactive).

For `COc1cccc(Oc2ccc(N)cn2)c1`, the Kd is > 4 mM (inactive).

As for `CCCn1c(C)cc(=O)[nH]c1=O`, the Kd is > 4 mM (inactive).

In the case of `Cc1ccc(OCC(=O)n2cnnc2N)c(C)c1`, the Kd was > 4 mM (inactive).

For the compound `COCC(=O)/C=C1\Sc2ccccc2N1C`, the Kd is > 4 mM (inactive).

For the compound `Cc1ccccc1NC(=S)NCCO`, the Kd is > 4 mM (inactive).

`Cc1ccc(/C=N/NC(N)=O)o1`: the Kd is > 4 mM (inactive).

Take `CC(C)CCCC(C)[C@H]1CCC2C3CC=C4C[C@@H](O)CC[C@]4(C)C3CC[C@@]21C` (some centres not stated): the Kd is > 4 mM (inactive).

`c1cnc(N2CCNCC2)nc1`: the Kd is > 4 mM (inactive).

As for `N#CCc1nc2ccccc2s1`, the Kd is > 4 mM (inactive).

On to `O=C1CSC(=Nc2cccc(C(=O)O)c2)N1`, for which the Kd is > 4 mM (inactive).

For `CC1(C)Cc2c(C#N)c(N)n(-c3ccccc3)c(=O)c2CO1`, the Kd is > 4 mM (inactive).

Turning to `O=C(CSc1ncn[nH]1)c1ccc2c(c1)OCO2`, the Kd was > 4 mM (inactive).

As for `Oc1ccccc1N1CCOCC1`, the Kd is > 4 mM (inactive).

Turning to `CCc1nnsc1C(=O)Nc1nccs1`, the Kd was > 4 mM (inactive).

Take `Cc1cc(C(=O)NCc2cccnc2)cs1`: the Kd is > 4 mM (inactive).

Consider `O=C(Nc1nccs1)c1ccc(=O)[nH]n1`, for which the Kd is > 4 mM (inactive).

Consider `Cc1nc2sccn2c1C(=O)O`, for which the Kd is > 4 mM (inactive).

On to `N#Cc1cnn(Cc2ccc(Cl)cc2)c1N`, for which the Kd was > 4 mM (inactive).

Turning to `CC(C)=CCc1c2c(c(O)c3c(=O)c(O)c(-c4ccccc4)oc13)C=CC(C)(C)O2`, the Kd is > 4 mM (inactive).

Consider `CS(=O)(=O)N1CCC(C(=O)NC2CCCC2)CC1`, for which the Kd is > 4 mM (inactive).

Turning to `CN(C)S(=O)(=O)c1cccc(N)c1`, the Kd is > 4 mM (inactive).

For `Nc1nc(O)c(C2=c3cc(Cl)ccc3=NC2=O)s1`, the Kd is > 4 mM (inactive).

Take `COc1ccc2c(c1)OC/C(=C\c1ccc(OC)c(O)c1)C2=O`: the Kd is > 4 mM (inactive).

Take `CC(=O)NC1C(=O)Nc2c(C)cc(C)cc21` (configuration not stated): the Kd is > 4 mM (inactive).

Turning to `CCOc1cccc(C(=O)c2ccc(O)c(O)c2O)c1`, the Kd was > 4 mM (inactive).

As for `COc1ccc(NC(=O)CSc2nccc(=O)[nH]2)cc1`, the Kd was > 4 mM (inactive).

In the case of `Nc1ccc(-n2cncn2)cc1`, the Kd was > 4 mM (inactive).

Take `CC1/C(=N/O)C[C@@H]2C[C@H]1C2(C)C` (some centres not stated): the Kd is > 4 mM (inactive).

As to `CCOC(=O)c1c(C)[nH]c2ccc(O)cc12`, the Kd is > 4 mM (inactive).

As to `Oc1ccc(C(=S)N2CCCCC2)cc1Cl`, the Kd was > 4 mM (inactive).

For the compound `CC(=O)Nc1ccc(Cl)c(C(N)=O)c1`, the Kd is > 4 mM (inactive).

For `COc1cccc(Oc2ccc(N)cc2)c1`, the Kd is > 4 mM (inactive).

In the case of `NC1=C(c2ccccc2)C(=O)c2ccccc21`, the Kd was > 4 mM (inactive).

Turning to `Nc1ccc(NS(=O)(=O)c2ccc(N)cc2)cc1`, the Kd was > 4 mM (inactive).

Consider `CCOC(=O)c1nc2ccccc2c(=O)n1N`, for which the Kd is > 4 mM (inactive).

Take `OCc1ccc(CN2CCOCC2)cc1`: the Kd was > 4 mM (inactive).

For the compound `CCOc1ccc(C(=O)c2ccc(OC)c(O)c2O)cc1`, the Kd was > 4 mM (inactive).

As to `COc1cccc(/C=C2/SC(N)=NC2=O)c1`, the Kd was > 4 mM (inactive).

As to `Cc1nn(-c2ccccc2)nc1C(N)=O`, the Kd was > 4 mM (inactive).

For `NC(=S)NC(=O)CN1C(=O)c2ccccc2C1=O`, the Kd was > 4 mM (inactive).

For the compound `CNC(=S)NCCN1CCOCC1`, the Kd is > 4 mM (inactive).

`O=C(NC1=NCCS1)c1csc2ccccc12`: the Kd was > 4 mM (inactive).

As to `Oc1ccc(/C=C/c2cc(O)cc(O)c2)cc1`, the Kd is > 4 mM (inactive).

Turning to `CN(C)S(=O)(=O)c1ccc(NC=O)cc1`, the Kd was > 4 mM (inactive).

With `Cc1ccc(C(=O)NC2=NCCS2)o1`, the Kd was > 4 mM (inactive).

With `C=C(C)[C@H]1COc2cc3oc(=O)ccc3cc2O1`, the Kd was > 4 mM (inactive).

Take `Cc1ccccc1NC(=O)c1ccccc1`: the Kd is > 4 mM (inactive).

For `OC1CNCc2cc3c(cc21)OCCO3` (configuration not stated), the Kd was > 4 mM (inactive).

`CC1=C2C(=CO[C@H](C)[C@H]2C)C(=O)C(C(=O)O)=C1O`: the Kd is > 4 mM (inactive).

For the compound `N#CCSc1nnc2ccc3ccccc3n12`, the Kd is > 4 mM (inactive).

Consider `CC(=O)Oc1ccccc1N1C(=O)C=CC1=O`, for which the Kd is > 4 mM (inactive).

For `CC[C@@]1(O)C[C@H](O[C@H]2C[C@H](N(C)C)[C@H](O)[C@H](C)O2)c2c(cc3c(c2O)C(=O)c2c(O)cccc2C3=O)[C@H]1C(=O)OC`, the Kd is > 4 mM (inactive).

With `Cc1c(-c2ccccc2)[n+](=O)c(-c2ccco2)c(C)n1[O-]`, the Kd was > 4 mM (inactive).

On to `NC(=O)Cc1nc(-c2ccc(F)cc2)cs1`, for which the Kd is > 4 mM (inactive).

In the case of `CCOC(=O)c1cnc2n(c1=O)CCS2`, the Kd was > 4 mM (inactive).

For the compound `O=C(O)c1ccc(N2CCOCC2)nc1`, the Kd was > 4 mM (inactive).

As for `OCc1ccc2c(c1)OCCO2`, the Kd is > 4 mM (inactive).

Consider `CCOC(=O)Cc1nc2ccccc2[nH]1`, for which the Kd was > 4 mM (inactive).

`CN(C)S(=O)(=O)Nc1ccc(Br)cc1F`: the Kd was > 4 mM (inactive).

On to `O=[N+]([O-])c1cccc(CN2CCC(O)CC2)c1`, for which the Kd was > 4 mM (inactive).

Take `COC(=O)C1CCN(c2ccc(Cl)nn2)CC1`: the Kd is > 4 mM (inactive).

Take `Cc1nn2c(-c3ccco3)nnc2c2ccccc12`: the Kd was > 4 mM (inactive).

`CC(=O)Oc1ccc(-c2nc(-c3cccnc3)no2)cc1`: the Kd is > 4 mM (inactive).

With `O=C(O)C1(O)C[C@@H](O)C(O)[C@H](O)C1` (some centres not stated), the Kd was > 4 mM (inactive).

Turning to `NC(N)=Nc1nc2ccccc2o1`, the Kd was > 4 mM (inactive).

With `NC1CSCC1O` (configuration not stated), the Kd was > 4 mM (inactive).

The values above are taken from PubChem BioAssay AID1648 (Sanford-Burnham Center for Chemical Genomics, 2009).
